Data from patent publication US8354414B2, “Substituted bicyclic pyrimidines” (Cephalon, Inc, priority 2006, dated 2013).
Where a name gives a salt, the structure may show the parent alone. Read-outs that look alike come from different tables or passages of the source.

Experiments:
CDK5/GST-p25 = target: T1, CDK5/GST-p25 (Homo sapiens, UniProt Q00535); assay: Inhibition of CDK5/GST-p25 kinase activity (ELISA with time-resolved fluorescence readout); type: biochemical
T1 construct: The final construct, encoding for full-length human CDK5; made in house; host or cells: Sf21 insect cells (baculovirus co-infection)
Summary of the method: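 The substrate, GST-Rb(773-928), was immobilised on plates and phosphorylated for 20 min at 37 °C by 2 ng/ml CDK5/GST-p25 in HEPES pH 7.2 with 10 µM ATP and 10 mM MgCl2. Both proteins were human and co-expressed in insect cells. Ser-780 phosphorylation was read by europium time-resolved fluorescence and converted to IC50.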

His6-GSK-3β = target: T2, His6-GSK-3β (Homo sapiens, UniProt P49841); assay: Inhibition of His6-GSK-3β kinase activity (ELISA-based format, time-resolved fluorescence readout); type: biochemical; conditions: for IC50: read-out: GSK3β IC50
T2 construct: made in house; host or cells: Sf21 insect cells (baculovirus)
Summary of the method: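 Plate-bound recombinant GST-Rb substrate was phosphorylated for 30 min at 37° C by baculovirus-expressed His6-GSK-3β (200 ng/ml) at 20 μM ATP, 10 mM MgCl2, 2.5% DMSO. Europium time-resolved fluorescence of anti-phospho-Ser780 Rb signal gave inhibition, fitted to IC50.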

T2 sequence (P49841 2-419): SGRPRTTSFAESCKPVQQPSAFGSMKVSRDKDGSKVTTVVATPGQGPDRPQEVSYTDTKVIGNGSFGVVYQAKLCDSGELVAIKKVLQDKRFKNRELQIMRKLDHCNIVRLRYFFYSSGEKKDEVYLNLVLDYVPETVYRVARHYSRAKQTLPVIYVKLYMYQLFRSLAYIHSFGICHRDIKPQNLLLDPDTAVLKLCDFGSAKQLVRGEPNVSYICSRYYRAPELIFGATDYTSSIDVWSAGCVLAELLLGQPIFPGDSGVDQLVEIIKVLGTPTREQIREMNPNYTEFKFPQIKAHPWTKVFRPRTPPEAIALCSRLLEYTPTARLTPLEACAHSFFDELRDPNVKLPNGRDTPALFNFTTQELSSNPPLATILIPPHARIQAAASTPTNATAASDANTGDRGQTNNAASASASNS
T1 sequence (Q00535 whole entry): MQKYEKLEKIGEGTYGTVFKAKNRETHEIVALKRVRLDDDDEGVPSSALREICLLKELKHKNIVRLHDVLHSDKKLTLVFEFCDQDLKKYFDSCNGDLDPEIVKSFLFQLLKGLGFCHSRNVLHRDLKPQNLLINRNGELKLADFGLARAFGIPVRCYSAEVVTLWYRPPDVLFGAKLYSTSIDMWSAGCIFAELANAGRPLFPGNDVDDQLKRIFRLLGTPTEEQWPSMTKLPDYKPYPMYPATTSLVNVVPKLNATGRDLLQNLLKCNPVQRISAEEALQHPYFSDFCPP
T1 sequence (Q15078 108-307 partner limits assumed): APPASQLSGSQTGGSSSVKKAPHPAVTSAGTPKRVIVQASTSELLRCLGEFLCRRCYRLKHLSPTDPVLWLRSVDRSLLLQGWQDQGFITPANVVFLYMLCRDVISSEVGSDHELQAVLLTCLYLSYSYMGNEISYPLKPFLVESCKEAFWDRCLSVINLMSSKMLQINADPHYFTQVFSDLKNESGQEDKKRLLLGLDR

| Compound | IC50 (CDK5/GST-p25; class symbols) [µM] | IC50 (His6-GSK-3β; class symbols) [µM] | IC50 (CDK5/GST-p25; numeric bounds) [µM] | IC50 (His6-GSK-3β; numeric bounds) [µM] | GSK3β % @10 μM (His6-GSK-3β; @10 μM) [% @10 μM] |
| --- | --- | --- | --- | --- | --- |
| CNCCCNc1nc(C2C(=O)Nc3ccc(C(F)(F)F)cc32)c2cn(C3CCCC3)nc2n1 (stereo not shown) [Example 253, 3-[2-Cyclopentyl-6-(3-methylamino-propylamino)-2H-pyrazolo [3,4-d]pyrimidin-4-yl]-5-trifluoromethyl-1,3-dihydro-indol-2-one hydrochloride salt] | 0.3 to 3 | < 0.3 |  |  |  |
| CCOCCn1cc2c(C3C(=O)Nc4ccc(Cl)cc43)nc(NCCc3cccnc3)nc2n1 (stereo not shown) [Example 212, 5-Chloro-3-[2-(2-ethoxy-ethyl)-6-(2-pyridin-3-yl-ethylamino)-2H-pyrazolo [3,4-d]pyrimidin-4-yl]-1,3-dihydro-indol-2-one] | < 0.3 | < 0.3 |  |  |  |
| N#Cc1ccc2c(c1)C(c1nc(N3CCNCC3)nc3c1CCC3)C(=O)N2 (stereo not shown) [Example 354, 2-Oxo-3-(2-piperazin-1-yl-6,7-dihydro-5H-cyclopentapyrimidin-4-yl)-2,3-dihydro-1H-indole-5-carbonitrile] | < 0.3 | 0.3 to 3 |  |  |  |
| N#Cc1ccc2c(c1)C(c1nc(N3CCOCC3)nc3nn(C4CCCC4)cc13)C(=O)N2 (stereo not shown) [Example 118, 3-(2-cyclopentyl-6-morpholin-4-yl-2H-pyrazolo[3,4-d]pyrimidin-4-yl)-2-oxo-2,3-dihydro-1H-indole-5-carbonitrile] | 0.3 to 3 | < 0.3 |  |  |  |
| CN1CCN(c2nc3c(c(C4C(=O)Nc5ccc(C#N)cc54)n2)CCC3)CC1 (stereo not shown) [Example 353, 3-[2-(4-Methyl-piperazin-1-yl)-6,7-dihydro-5H-cyclopentapyrimidin-4-yl]-2-oxo-2,3-dihydro-1H-indole-5-carbonitrile] | > 10 | 0.3 to 3 |  |  |  |
| CN1CCN(c2nc(C3C(=O)Nc4ccc(C#N)cc43)c3cn(C4CCCC4)nc3n2)CC1 (stereo not shown) [Example 117, 3-(2-cyclopentyl-6-(4-methyl-piperazin-1-yl)-2H-pyrazolo[3,4-d]pyrimidin-4-yl)-2-oxo-2,3-dihydro-1H-indole-5-carbonitrile] | 3 to 10 | < 0.3 |  |  |  |
| CCCn1cc2c(C3C(=O)Nc4ccc(Br)cc43)nc(NC[C@@H]3CCCN3)nc2n1 (stereo partly drawn) [Example 361, 5-Bromo-3-{2-propyl-6-[((S)-1-pyrrolidin-2-ylmethyl)-amino]-2H-pyrazolo[3,4-d]pyrimidin-4-yl}-1,3-dihydro-indol-2-one] |  | < 0.3 | > 3 |  |  |
| CCCn1cc2c(C3C(=O)Nc4ccc(Br)cc43)nc(NCCNC)nc2n1 (stereo not shown) [Example 365, 5-Bromo-3-[6-(2-methylamino-ethylamino)-2-propyl-2H-pyrazolo [3,4-d]pyrimidin-4-yl]-1,3-dihydro-indol-2-one hydrochloride salt] | 0.3 to 3 | < 0.3 |  |  |  |
| N#Cc1ccc2c(c1)C(c1nc(N3CCCC3)nc3nn(C4CCCC4)cc13)C(=O)N2 (stereo not shown) [Example 132, 3-(2-cyclopentyl-6-pyrrolidin-1-yl-2H-pyrazolo [3,4-d]pyrimidin-4-yl)-2-oxo-2,3-dihydro-1H-indole-5-carbonitrile] | > 10 | < 0.3 |  |  |  |
| CCCn1cc2c(C3C(=O)Nc4ccc(Br)cc43)nc(NC[C@@H]3CCCO3)nc2n1 (stereo partly drawn) [Example 367, 5-Bromo-3-(2-propyl-6-{[(S)-1-(tetrahydro-furan-2-yl)methyl]-amino}-2H-pyrazolo [3,4-d]pyrimidin-4-yl)-1,3-dihydro-indol-2-one] | < 0.3 | < 0.3 |  |  |  |
| N#Cc1ccc2c(c1)C(c1nc(N3CCN(CCCc4ccccc4)CC3)nc3nn(C4CCCC4)cc13)C(=O)N2 (stereo not shown) [Example 128, 3-{2-cyclopentyl-6-[4-(3-phenyl-propyl)-piperazin-1-yl]-2H-pyrazolo[3,4-d]pyrimidin-4-yl}-2-oxo-2,3-dihydro-1H-indole-5-carbonitrile] | > 10 | < 0.3 |  |  |  |
| CN1CCN(c2ccc(Nc3nc(C4C(=O)Nc5ccc(C#N)cc54)c4cn(C5CCCC5)nc4n3)cn2)CC1 (stereo not shown) [Example 137, 3-{2-cyclopentyl-6-[6-(4-methyl-piperazin-1-yl)-pyridin-3-yl-amino]-2H-pyrazolo [3,4-d]pyrimidin-4-yl}-2-oxo-2,3-dihydro-1H-indole-5-carbonitrile] | > 10 | < 0.3 |  |  |  |
| N#Cc1ccc2c(c1)C(c1nc(NCCN3CCSCC3)nc3nn(C4CCCC4)cc13)C(=O)N2 (stereo not shown) [Example 178, 3-[2-Cyclopentyl-6-(2-thiomorpholin-4-yl-ethylamino)-2H-pyrazolo[3,4-d]pyrimidin-4-yl]-2-oxo-2,3-dihydro-1H-indole-5-carbonitrile] | 0.3 to 3 | < 0.3 |  |  |  |
| N#Cc1ccc2c(c1)C(c1nc(NCCCN3CCCCC3)nc3nn(C4CCCC4)cc13)C(=O)N2 (stereo not shown) [Example 170, 3[2-Cyclopentyl-6-(3-piperidin-1-yl-propylamino)-2H-pyrazolo[3,4-d]pyrimidin-4-yl]-2-oxo-2,3-dihydro-1H-indole-5-carbonitrile] | 0.3 to 3 | < 0.3 |  |  |  |
| CN(Cc1cccnc1)c1nc(C2C(=O)Nc3ccc(C#N)cc32)c2cn(C3CCCC3)nc2n1 (stereo not shown) [Example 172, 3-[2-Cyclopentyl-6-(methyl-pyridin-3-ylmethyl-amino)-2H-pyrazolo [3,4-d]pyrimidin-4-yl]-2-oxo-2,3-dihydro-1H-indole-5-carbonitrile] | > 10 | < 0.3 |  |  |  |
| CCCn1cc2c(C3C(=O)Nc4ccc(Br)cc43)nc(N[C@@H]3CCNC3)nc2n1 (stereo partly shown) [Example 363] | 0.3 to 3 | 0.3 to 3 |  |  |  |
| COCCNc1nc(C2C(=O)Nc3ccc(C#N)cc32)c2cn(C3CCCC3)nc2n1 (stereo not shown) [Example 174, 3-[2-Cyclopentyl-6-(2-methoxy-ethylamino)-2H-pyrazolo [3,4-d]pyrimidin-4-yl]-2-oxo-2,3-dihydro-1H-indole-5-carbonitrile] | < 0.3 | < 0.3 |  |  |  |
| CNCCCNc1nc(C2C(=O)Nc3ccc(Br)cc32)c2cn(C)nc2n1 (stereo not shown) [Example 306, 5-Bromo-3-[2-methyl-6-(3-methylamino-propylamino)-2H-pyrazolo [3,4-d]pyrimidin-4-yl]-1,3-dihydro-indol-2-one] | < 0.3 | 0.3 to 3 |  |  |  |
| CNc1nc(C2C(=O)Nc3ccc(C#N)cc32)c2cn(C3CCCC3)nc2n1 (stereo not shown) [Example 115, 3-(2-cyclopentyl-6-methylamino-2H-pyrazolo[3,4-d]pyrimidin-4-yl)-2-oxo-2,3-dihydro-1H-indole-5-carbonitrile] | < 0.3 | < 0.3 |  |  |  |

Second part, the compound after the results:

| IC50 (CDK5/GST-p25; class symbols) [µM] | IC50 (His6-GSK-3β; class symbols) [µM] | IC50 (CDK5/GST-p25; numeric bounds) [µM] | IC50 (His6-GSK-3β; numeric bounds) [µM] | GSK3β % @10 μM (His6-GSK-3β; @10 μM) [% @10 μM] | Compound |
| --- | --- | --- | --- | --- | --- |
| 0.3 to 3 | 0.3 to 3 |  |  |  | N#Cc1ccc2c(c1)C(c1nc(NCc3ccncc3)nc3c1CCC3)C(=O)N2 (stereo not shown) [Example 347, 2-Oxo-3-{2-[(pyridin-4-ylmethyl)-amino]-6,7-dihydro-5H-cyclopentapyrimidin-4-yl}-2,3-dihydro-1H-indole-5-carbonitrile] |
| < 0.3 | < 0.3 |  |  |  | N#Cc1ccc2c(c1)C(c1nc(NCCc3cccnc3)nc3nn(C4CCCC4)cc13)C(=O)N2 (stereo not shown) [Example 114, 3-(2-cyclopentyl-6-(2-pyridin-3-yl-ethylamino)-2H-pyrazolo[3,4-d]pyrimidin-4-yl)-2-oxo-2,3-dihydro-1H-indole-5-carbonitrile] |
| > 10 | > 10 |  |  |  | CCOCCNc1nc2c(c(C3C(=O)Nc4ccc(Br)cc43)n1)CCC2 (stereo not shown) [Example 334, 5-Bromo-3-[2-(2-ethoxy-ethylamino)-6,7-dihydro-5H-cyclopentapyrimidin-4-yl]-1,3-dihydro-indol-2-one] |
| > 10 |  |  | > 3 |  | O=C1Nc2ccc(Br)cc2C1c1nc(NCc2ccncc2)nc2c1CCC2 (stereo not shown) [Example 336, 5-Bromo-3-{2-[(pyridin-4-ylmethyl)-amino]-6,7-dihydro-5H-cyclopentapyrimidin-4-yl}-1,3-dihydro-indol-2-one] |
| > 10 | > 10 |  |  |  | CCOCCNc1nc2c(c(C3C(=O)Nc4ccc(Cl)cc43)n1)CCC2 (stereo not shown) [Example 325, 5-Chloro-3-[2-(2-ethoxy-ethylamino)-6,7-dihydro-5H-cyclopentapyrimidin-4-yl]-1,3-dihydro-indol-2-one] |
| 0.3 to 3 | 0.3 to 3 |  |  |  | N#Cc1ccc2c(c1)C(c1nc(NCCN3CCOCC3)nc3c1CCC3)C(=O)N2 (stereo not shown) [Example 341, 3-[2-(2-Morpholin-4-yl-ethylamino)-6,7-dihydro-5H-cyclopentapyrimidin-4-yl]-2-oxo-2,3-dihydro-1H-indole-5-carbonitrile] |
| 0.3 to 3 | 0.3 to 3 |  |  |  | N#Cc1ccc2c(c1)C(c1nc(NCCc3ccccn3)nc3c1CCC3)C(=O)N2 (stereo not shown) [Example 346, 2-Oxo-3-[2-(2-pyridin-2-yl-ethylamino)-6,7-dihydro-5H-cyclopentapyrimidin-4-yl]-2,3-dihydro-1H-indole-5-carbonitrile] |
|  | 0.3 to 3 | > 3 |  |  | O=C1Nc2ccc(Cl)cc2C1c1nc(NCc2cccnc2)nc2c1CCC2 (stereo not shown) [Example 327, 5-Chloro-3-{2-[(pyridin-3-ylmethyl)-amino]-6,7-dihydro-5H-cyclopentapyrimidin-4-yl}-1,3-dihydro-indol-2-one] |
| > 10 |  |  |  | 67 | N#Cc1ccc2c(c1)C(c1nc(NCCc3ccncc3)nc3c1CCC3)C(=O)N2 (stereo not shown) [Example 345, 2-Oxo-3-[2-(2-pyridin-4-yl-ethylamino)-6,7-dihydro-5H-cyclopentapyrimidin-4-yl]-2,3-dihydro-1H-indole-5-carbonitrile] |
| > 10 | > 10 |  |  |  | N#Cc1ccc2c(c1)C(c1nc(Cl)nc3c1CCC3)C(=O)N2 (stereo not shown) [Example 317, 3-(2-Chloro-6,7-dihydro-5H-cyclopentapyrimidin-4-yl)-2-oxo-2,3-dihydro-1H-indole-5-carbonitrile] |
